Measurements published in ChEMBL document CHEMBL1122369, “Autoxidation of the antitumor drug 9-hydroxyellipticine and its derivatives” (1983).

Tested on: L1210
Experiment: Growth inhibitory activity against L1210 lymphocytic leukemia cells.
Assay type: functional
Settings: Mus musculus, read-out: ID50 (the source's name)

Compound | IC50 [nM]
Cc1c2ccncc2c(C)c2c1[nH]c1c(O)cccc12 | 5440
Cc1c2c[n+](C)ccc2c(C)c2c1c1cc(O)ccc1n2C | 41
Cc1c2ccncc2c(C)c2c1[nH]c1ccccc12 [ELLIPTECINE] | 990

The next lines start with the values.

IC50 [nM] | Compound
15 | Cc1c2ccncc2c(C)c2c1[nH]c1ccc(O)cc12
50 | Cc1c2cc[n+](C)cc2c(C)c2c1[nH]c1ccc(O)cc12 [ELLIPTINIUM]
